Ten compounds from ChEMBL document CHEMBL2331141, “Synthesis, characterization, screening and docking analysis of 4-anilinoquinazoline derivatives as tyrosine kinase inhibitors” (Eur J Med Chem, 2013) can be followed below.

The target of test [1] is T1, Epidermal growth factor receptor (Homo sapiens, UniProt P00533). As to the kind of experiment: Inhibition of EGFR (unknown origin).
For test [2], the target named is T1, Epidermal growth factor receptor. As to the kind of experiment: Inhibition of EGFR (unknown origin) using biotinylated-PTP1B (Tyr66) as substrate incubated for 5 mins prior to substrate addition measured after 1 hr by ELISA.

The structures appear in SMILES notation.

T1 sequence (P00533 whole entry): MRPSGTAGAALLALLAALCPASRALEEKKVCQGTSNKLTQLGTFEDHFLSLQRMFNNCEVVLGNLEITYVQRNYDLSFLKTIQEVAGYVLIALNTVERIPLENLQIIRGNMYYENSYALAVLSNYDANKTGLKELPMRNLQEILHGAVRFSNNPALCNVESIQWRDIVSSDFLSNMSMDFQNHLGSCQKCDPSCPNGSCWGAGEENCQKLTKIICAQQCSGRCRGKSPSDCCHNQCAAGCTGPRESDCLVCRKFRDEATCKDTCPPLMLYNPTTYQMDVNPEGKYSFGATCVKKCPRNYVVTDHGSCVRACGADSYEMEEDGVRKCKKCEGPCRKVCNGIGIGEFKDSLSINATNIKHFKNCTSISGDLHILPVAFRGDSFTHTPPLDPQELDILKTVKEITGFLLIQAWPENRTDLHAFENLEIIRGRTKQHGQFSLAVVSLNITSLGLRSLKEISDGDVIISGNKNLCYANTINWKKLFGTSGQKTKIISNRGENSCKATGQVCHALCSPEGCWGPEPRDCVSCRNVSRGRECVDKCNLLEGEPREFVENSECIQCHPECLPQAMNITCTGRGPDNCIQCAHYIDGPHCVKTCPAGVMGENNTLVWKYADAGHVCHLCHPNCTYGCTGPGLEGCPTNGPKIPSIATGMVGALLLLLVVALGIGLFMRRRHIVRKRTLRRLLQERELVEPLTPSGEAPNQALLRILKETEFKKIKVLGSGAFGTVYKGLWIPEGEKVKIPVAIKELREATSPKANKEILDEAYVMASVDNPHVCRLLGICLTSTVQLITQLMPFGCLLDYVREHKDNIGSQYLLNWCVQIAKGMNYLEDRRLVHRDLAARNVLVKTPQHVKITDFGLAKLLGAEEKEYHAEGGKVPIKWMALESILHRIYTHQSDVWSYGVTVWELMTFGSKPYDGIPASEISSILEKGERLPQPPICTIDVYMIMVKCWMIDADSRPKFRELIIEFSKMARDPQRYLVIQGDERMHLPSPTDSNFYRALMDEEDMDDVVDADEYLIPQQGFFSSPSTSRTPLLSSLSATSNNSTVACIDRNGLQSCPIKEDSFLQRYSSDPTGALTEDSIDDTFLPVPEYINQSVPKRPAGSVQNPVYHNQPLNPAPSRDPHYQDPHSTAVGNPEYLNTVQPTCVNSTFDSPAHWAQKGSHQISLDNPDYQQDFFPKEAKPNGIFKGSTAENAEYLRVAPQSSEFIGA

For the compound `COc1cc2ncnc(Nc3ccc(C(C)(F)F)cc3)c2cc1OC`, the IC50 in test [1] is 4700 nM. Take `COc1cc2ncnc(Nc3ccccc3C(F)(F)F)c2cc1OC`: the IC50 in test [1] turned out to be 10000 nM. This IC50 is about 2.1-fold higher than that of the compound before. Turning to `COc1cc2ncnc(Nc3cccc(-c4ccccc4)c3)c2cc1OC`, the IC50 in test [2] was 127 nM. In other words, the sub-micromolar range. The same measure, in the same setting: next, `COc1cc2ncnc(Nc3cccc(C#N)c3)c2cc1OC`: 413 nM; `COc1cc2ncnc(Nc3ccc(F)c(Cl)c3)c2cc1OCCO`: 63.4 nM.

With `COc1cc2ncnc(Nc3ccc(F)c(Cl)c3)c2cc1OCCNCCN`, 12.1 nM corresponded to half-maximal inhibition in test [2] (IC50). In test [2], `COc1cc2ncnc(Nc3ccc(F)c(Cl)c3)c2cc1OCCCNCCN` came in with an IC50 of 13.6 nM. In test [2], `COc1cc2ncnc(Nc3cccc(SC)c3)c2cc1OC` had an IC50 of 127 nM. Regarding `COc1cc2ncnc(Nc3cccc(C(F)(F)F)c3)c2cc1OC`, it took 15 nM to reach half-maximal inhibition in test [1] (IC50).

As for `COc1cc2ncnc(Nc3ccccc3)c2cc1OC`, the IC50 in test [2] came to 201 nM.
